According to ChEMBL document CHEMBL4507289, “Data for DCP probe GSM1” (2021):

Legend:
[1] = test system: Tyrosine-protein kinase ABL1 (Homo sapiens), P00519 [Y253F]; conditions: Compound concentration 1000.0 nM
[2] = biological target: Ephrin type-B receptor 2 (Homo sapiens) (UniProt P29323); conditions: Compound concentration 1000.0 nM
[3] = biological target: Protein-tyrosine kinase 6 (Homo sapiens) (UniProt Q13882); conditions: Compound concentration 1000.0 nM
[4] = test system: Epidermal growth factor receptor (Homo sapiens), P00533 [UNDEFINED MUTATION]; conditions: Compound concentration 1000.0 nM
Chain of Epidermal growth factor receptor (Homo sapiens), P00533 [UNDEFINED MUTATION] (P00533 whole entry, looked up, stated change not applied): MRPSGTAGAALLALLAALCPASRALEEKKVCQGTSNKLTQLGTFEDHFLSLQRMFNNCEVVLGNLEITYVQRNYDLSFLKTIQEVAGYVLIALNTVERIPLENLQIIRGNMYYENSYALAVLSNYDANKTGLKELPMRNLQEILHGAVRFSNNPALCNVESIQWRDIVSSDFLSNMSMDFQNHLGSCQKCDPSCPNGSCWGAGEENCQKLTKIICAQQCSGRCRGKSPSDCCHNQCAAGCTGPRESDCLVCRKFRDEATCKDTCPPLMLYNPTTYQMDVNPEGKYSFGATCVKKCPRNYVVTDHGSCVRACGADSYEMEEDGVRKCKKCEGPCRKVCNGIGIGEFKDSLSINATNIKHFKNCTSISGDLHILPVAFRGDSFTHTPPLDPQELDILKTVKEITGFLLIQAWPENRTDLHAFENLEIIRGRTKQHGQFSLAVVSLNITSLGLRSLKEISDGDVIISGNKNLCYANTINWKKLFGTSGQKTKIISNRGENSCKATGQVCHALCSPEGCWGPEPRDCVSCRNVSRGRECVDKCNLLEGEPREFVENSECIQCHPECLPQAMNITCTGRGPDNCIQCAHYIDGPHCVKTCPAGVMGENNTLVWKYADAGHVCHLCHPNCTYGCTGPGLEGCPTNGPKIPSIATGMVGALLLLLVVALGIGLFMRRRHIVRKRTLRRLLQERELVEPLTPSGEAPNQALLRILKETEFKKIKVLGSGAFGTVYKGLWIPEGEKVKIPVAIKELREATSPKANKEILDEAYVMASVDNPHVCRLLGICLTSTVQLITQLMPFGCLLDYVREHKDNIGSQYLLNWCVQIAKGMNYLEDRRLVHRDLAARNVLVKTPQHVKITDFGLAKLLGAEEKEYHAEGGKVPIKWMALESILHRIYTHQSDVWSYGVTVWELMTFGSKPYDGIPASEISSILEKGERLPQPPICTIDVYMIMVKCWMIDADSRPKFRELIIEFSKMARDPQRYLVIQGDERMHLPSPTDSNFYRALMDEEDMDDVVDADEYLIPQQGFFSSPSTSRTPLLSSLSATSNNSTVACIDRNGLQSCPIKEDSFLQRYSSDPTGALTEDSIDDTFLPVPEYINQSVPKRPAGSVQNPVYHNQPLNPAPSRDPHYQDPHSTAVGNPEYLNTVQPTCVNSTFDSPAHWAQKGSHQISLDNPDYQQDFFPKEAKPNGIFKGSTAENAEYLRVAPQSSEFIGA

[5] = biological target: Misshapen-like kinase 1 (Homo sapiens) (UniProt Q8N4C8); conditions: Compound concentration 1000.0 nM
[6] = biological target: RAC-beta serine/threonine-protein kinase (Homo sapiens) (UniProt P31751); conditions: Compound concentration 1000.0 nM
[7] = biological target: Tyrosine-protein kinase JAK2 (Homo sapiens) (UniProt O60674); conditions: Compound concentration 1000.0 nM
[8] = biological target: Sodium-dependent dopamine transporter (Homo sapiens, UniProt Q01959); conditions: Compound concentration 10.0 uM
Chain of Sodium-dependent dopamine transporter (Q01959 whole entry): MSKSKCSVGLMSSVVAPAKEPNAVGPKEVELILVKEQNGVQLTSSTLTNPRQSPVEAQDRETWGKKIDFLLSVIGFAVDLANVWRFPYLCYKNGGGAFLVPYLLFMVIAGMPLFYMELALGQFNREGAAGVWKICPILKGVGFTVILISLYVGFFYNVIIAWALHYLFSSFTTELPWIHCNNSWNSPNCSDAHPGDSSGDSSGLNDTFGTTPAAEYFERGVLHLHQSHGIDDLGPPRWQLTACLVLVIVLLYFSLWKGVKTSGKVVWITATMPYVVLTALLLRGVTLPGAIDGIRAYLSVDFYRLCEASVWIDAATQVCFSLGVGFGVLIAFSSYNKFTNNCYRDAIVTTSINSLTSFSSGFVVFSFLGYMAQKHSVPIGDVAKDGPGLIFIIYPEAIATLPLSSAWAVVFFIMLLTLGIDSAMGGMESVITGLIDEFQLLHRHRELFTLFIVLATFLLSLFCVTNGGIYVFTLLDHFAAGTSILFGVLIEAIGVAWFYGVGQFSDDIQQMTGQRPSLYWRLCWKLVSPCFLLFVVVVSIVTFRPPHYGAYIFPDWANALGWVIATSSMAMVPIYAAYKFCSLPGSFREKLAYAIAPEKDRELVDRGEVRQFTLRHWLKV

[9] = biological target: Glycogen synthase kinase-3 beta (Homo sapiens) (UniProt P49841); conditions: Compound concentration 1000.0 nM
[10] = test system: Tyrosine-protein kinase ABL1 (Homo sapiens), P00519 [E255K]; conditions: Compound concentration 1000.0 nM
[11] = biological target: Mitogen-activated protein kinase kinase kinase kinase 3 (Homo sapiens) (UniProt Q8IVH8); conditions: Compound concentration 1000.0 nM
[12] = test system: ALK tyrosine kinase receptor (Homo sapiens), Q9UM73 [L1196M]; conditions: Compound concentration 1000.0 nM
Chain of ALK tyrosine kinase receptor (Homo sapiens), Q9UM73 [L1196M] (Q9UM73 whole entry L1196M, looked up): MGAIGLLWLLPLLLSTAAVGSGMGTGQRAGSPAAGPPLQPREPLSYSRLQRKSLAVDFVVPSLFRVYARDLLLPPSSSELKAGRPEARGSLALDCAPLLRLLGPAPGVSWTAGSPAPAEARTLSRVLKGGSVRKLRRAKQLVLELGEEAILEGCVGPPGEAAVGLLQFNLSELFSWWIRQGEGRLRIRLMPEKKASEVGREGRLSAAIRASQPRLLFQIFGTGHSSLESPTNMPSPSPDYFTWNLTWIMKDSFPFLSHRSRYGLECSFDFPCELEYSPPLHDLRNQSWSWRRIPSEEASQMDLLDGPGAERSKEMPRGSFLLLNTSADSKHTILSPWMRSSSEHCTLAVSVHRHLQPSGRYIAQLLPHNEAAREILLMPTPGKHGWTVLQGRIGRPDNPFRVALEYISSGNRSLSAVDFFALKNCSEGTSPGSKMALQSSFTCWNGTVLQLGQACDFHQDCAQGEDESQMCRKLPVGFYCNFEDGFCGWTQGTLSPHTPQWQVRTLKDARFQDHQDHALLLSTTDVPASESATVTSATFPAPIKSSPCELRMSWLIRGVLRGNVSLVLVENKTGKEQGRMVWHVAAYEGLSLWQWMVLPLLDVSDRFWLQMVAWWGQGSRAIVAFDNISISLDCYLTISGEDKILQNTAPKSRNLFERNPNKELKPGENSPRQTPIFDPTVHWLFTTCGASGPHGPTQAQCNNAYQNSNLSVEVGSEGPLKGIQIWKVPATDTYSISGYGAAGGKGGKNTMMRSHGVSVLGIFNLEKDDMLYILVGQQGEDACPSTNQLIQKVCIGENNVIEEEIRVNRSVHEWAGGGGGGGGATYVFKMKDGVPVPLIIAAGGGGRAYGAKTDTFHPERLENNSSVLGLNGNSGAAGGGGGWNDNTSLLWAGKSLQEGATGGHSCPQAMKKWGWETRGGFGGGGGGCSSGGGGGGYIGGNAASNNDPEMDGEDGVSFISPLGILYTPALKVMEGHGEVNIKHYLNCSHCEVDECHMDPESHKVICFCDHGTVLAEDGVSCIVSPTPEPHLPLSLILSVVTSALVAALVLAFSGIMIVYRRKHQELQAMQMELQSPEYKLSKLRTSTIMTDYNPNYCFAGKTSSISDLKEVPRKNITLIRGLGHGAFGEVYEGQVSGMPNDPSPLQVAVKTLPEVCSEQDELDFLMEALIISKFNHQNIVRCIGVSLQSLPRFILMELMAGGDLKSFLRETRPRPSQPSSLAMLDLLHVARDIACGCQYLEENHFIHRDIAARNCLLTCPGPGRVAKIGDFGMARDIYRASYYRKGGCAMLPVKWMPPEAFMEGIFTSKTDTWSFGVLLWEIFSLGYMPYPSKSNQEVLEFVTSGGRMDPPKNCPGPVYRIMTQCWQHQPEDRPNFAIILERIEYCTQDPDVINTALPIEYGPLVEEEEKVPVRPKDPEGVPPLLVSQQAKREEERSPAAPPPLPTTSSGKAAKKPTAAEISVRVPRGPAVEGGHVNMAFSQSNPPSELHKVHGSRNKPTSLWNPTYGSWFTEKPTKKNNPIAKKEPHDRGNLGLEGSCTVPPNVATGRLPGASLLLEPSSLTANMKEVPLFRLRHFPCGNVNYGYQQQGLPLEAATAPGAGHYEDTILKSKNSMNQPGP

[13] = biological target: G protein-coupled receptor kinase 3 (Homo sapiens) (UniProt P35626); conditions: Compound concentration 1000.0 nM
[14] = biological target: Mitogen-activated protein kinase kinase kinase 10 (Homo sapiens) (UniProt Q02779); conditions: Compound concentration 1000.0 nM
[15] = biological target: STE20/SPS1-related proline-alanine-rich protein kinase (Homo sapiens) (UniProt Q9UEW8); conditions: Compound concentration 1000.0 nM
[16] = biological target: Mitogen-activated protein kinase kinase kinase 14 (Homo sapiens) (UniProt Q99558); conditions: Compound concentration 1000.0 nM
[17] = biological target: Serine/threonine-protein kinase Nek6 (Homo sapiens) (UniProt Q9HC98); conditions: Compound concentration 1000.0 nM
[18] = biological target: Serine/threonine-protein kinase NLK (Homo sapiens) (UniProt Q9UBE8); conditions: Compound concentration 1000.0 nM
Chain of Serine/threonine-protein kinase NLK (Homo sapiens) (Q9UBE8 whole entry): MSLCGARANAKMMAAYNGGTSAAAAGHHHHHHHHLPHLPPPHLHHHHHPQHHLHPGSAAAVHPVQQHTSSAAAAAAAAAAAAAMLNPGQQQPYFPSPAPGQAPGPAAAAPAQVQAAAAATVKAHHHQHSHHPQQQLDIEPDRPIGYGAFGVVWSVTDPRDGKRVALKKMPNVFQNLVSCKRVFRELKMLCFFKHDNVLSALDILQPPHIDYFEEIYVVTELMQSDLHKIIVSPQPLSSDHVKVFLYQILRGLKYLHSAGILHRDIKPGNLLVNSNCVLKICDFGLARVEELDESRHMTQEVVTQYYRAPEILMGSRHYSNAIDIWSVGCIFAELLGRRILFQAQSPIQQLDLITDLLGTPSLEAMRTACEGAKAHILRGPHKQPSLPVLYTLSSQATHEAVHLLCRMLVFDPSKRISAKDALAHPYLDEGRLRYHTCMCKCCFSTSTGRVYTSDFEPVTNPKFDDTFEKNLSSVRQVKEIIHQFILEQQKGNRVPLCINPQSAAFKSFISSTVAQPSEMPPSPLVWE

[19] = biological target: Ribosomal protein S6 kinase alpha-1 (Homo sapiens) (UniProt Q15418); conditions: Compound concentration 1000.0 nM
[20] = biological target: Microtubule-associated serine/threonine-protein kinase 1 (Homo sapiens) (UniProt Q9Y2H9); conditions: Compound concentration 1000.0 nM
[21] = biological target: Ribosomal protein S6 kinase alpha-3 (Homo sapiens) (UniProt P51812); conditions: Compound concentration 1000.0 nM
[22] = test system: Epidermal growth factor receptor (Homo sapiens), P00533 [UNDEFINED MUTATION]; conditions: Compound concentration 1000.0 nM; remark: listed apart in the source
[23] = test system: Mast/stem cell growth factor receptor Kit (Homo sapiens), P10721 [D816V]; conditions: Compound concentration 1000.0 nM
[24] = test system: Phosphatidylinositol 4,5-bisphosphate 3-kinase catalytic subunit alpha isoform (Homo sapiens), P42336 [E542K]; conditions: Compound concentration 1000.0 nM
[25] = biological target: Serine/threonine-protein kinase DCLK3 (Homo sapiens) (UniProt Q9C098); conditions: Compound concentration 1000.0 nM
[26] = biological target: Serine/threonine-protein kinase 10 (Homo sapiens) (UniProt O94804); conditions: Compound concentration 1000.0 nM
[27] = biological target: Serine/threonine-protein kinase 38 (Homo sapiens) (UniProt Q15208); conditions: Compound concentration 1000.0 nM
[28] = biological target: Serine/threonine-protein kinase Chk1 (Homo sapiens) (UniProt O14757); conditions: Compound concentration 1000.0 nM
[29] = biological target: Eukaryotic translation initiation factor 2-alpha kinase 1 (Homo sapiens) (UniProt Q9BQI3); conditions: Compound concentration 1000.0 nM
[30] = biological target: Serine/threonine-protein kinase Nek5 (Homo sapiens) (UniProt Q6P3R8); conditions: Compound concentration 1000.0 nM
[31] = biological target: Calcium/calmodulin-dependent protein kinase type II subunit alpha (Homo sapiens) (UniProt Q9UQM7); conditions: Compound concentration 1000.0 nM
[32] = biological target: Casein kinase I isoform gamma-3 (Homo sapiens) (UniProt Q9Y6M4); conditions: Compound concentration 1000.0 nM
[33] = biological target: Calcium/calmodulin-dependent protein kinase type II subunit beta (Homo sapiens) (UniProt Q13554); conditions: Compound concentration 1000.0 nM
[34] = biological target: Sodium-dependent serotonin transporter (Homo sapiens, UniProt P31645); test: GPCRScan assay: inhibition of SERT; set-up: radioligand conc. used [nm] 1.5 – 2.0, parental cells stable HEK
Chain of Sodium-dependent serotonin transporter (P31645 whole entry): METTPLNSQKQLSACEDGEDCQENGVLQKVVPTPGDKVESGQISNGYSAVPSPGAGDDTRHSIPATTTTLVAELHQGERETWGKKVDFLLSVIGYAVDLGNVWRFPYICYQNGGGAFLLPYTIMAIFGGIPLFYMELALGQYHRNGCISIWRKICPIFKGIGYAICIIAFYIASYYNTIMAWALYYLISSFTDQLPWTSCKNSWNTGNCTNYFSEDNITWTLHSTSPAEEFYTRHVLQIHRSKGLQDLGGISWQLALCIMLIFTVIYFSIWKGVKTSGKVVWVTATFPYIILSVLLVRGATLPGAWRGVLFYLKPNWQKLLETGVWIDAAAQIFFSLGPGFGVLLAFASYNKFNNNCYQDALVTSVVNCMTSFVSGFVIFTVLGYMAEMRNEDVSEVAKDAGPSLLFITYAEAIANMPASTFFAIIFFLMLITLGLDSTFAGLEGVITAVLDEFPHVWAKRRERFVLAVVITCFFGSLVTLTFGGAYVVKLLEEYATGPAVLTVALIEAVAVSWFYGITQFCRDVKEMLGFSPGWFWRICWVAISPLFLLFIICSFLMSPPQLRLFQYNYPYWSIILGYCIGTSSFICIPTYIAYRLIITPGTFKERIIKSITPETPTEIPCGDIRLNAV

[35] = biological target: Activin receptor type-1B (Homo sapiens) (UniProt P36896); conditions: Compound concentration 1000.0 nM
[36] = biological target: Ephrin type-B receptor 3 (Homo sapiens) (UniProt P54753); conditions: Compound concentration 1000.0 nM
[37] = biological target: Protein kinase C delta type (Homo sapiens) (UniProt Q05655); conditions: Compound concentration 1000.0 nM
[38] = biological target: Ephrin type-A receptor 3 (Homo sapiens) (UniProt P29320); conditions: Compound concentration 1000.0 nM
[39] = biological target: Serine/threonine-protein kinase Sgk2 (Homo sapiens) (UniProt Q9HBY8); conditions: Compound concentration 1000.0 nM
[40] = biological target: Mitogen-activated protein kinase 4 (Homo sapiens) (UniProt P31152); conditions: Compound concentration 1000.0 nM
[41] = test system: Mast/stem cell growth factor receptor Kit (Homo sapiens), P10721 [D816H]; conditions: Compound concentration 1000.0 nM
[42] = biological target: Serine/threonine-protein kinase 17A (Homo sapiens) (UniProt Q9UEE5); conditions: Compound concentration 1000.0 nM
[43] = biological target: Serine/threonine-protein kinase pim-3 (Homo sapiens) (UniProt Q86V86); conditions: Compound concentration 1000.0 nM
[44] = biological target: Tyrosine-protein kinase receptor Tie-1 (Homo sapiens) (UniProt P35590); conditions: Compound concentration 1000.0 nM
[45] = biological target: Dual specificity mitogen-activated protein kinase kinase 6 (Homo sapiens) (UniProt P52564); conditions: Compound concentration 1000.0 nM
Chain of Dual specificity mitogen-activated protein kinase kinase 6 (Homo sapiens) (P52564 whole entry): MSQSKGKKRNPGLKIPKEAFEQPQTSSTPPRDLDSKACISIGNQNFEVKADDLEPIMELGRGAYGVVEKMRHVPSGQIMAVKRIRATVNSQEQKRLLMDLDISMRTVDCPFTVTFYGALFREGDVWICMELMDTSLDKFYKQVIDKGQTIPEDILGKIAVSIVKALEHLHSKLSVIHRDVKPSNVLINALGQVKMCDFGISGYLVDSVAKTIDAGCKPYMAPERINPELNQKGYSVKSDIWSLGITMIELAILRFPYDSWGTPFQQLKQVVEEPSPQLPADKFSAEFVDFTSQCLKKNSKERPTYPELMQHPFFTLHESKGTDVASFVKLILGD

`COc1cc(-c2cn([C@H]3CCc4ccccc4N(CC(F)(F)F)C3=O)nn2)ccc1-n1ccc(C)n1` gave a residual activity [1] of 87%, a residual activity [2] of 100% and a residual activity [3] of 100%. The residual activity [4] was 100%, the residual activity [5] was 100% and the residual activity [6] was 93%. For the same compound, the residual activity [7] was 34%, the inhibition [8] was 5.21% and the residual activity [9] was 85%. For the same compound, the residual activity [10] was 96%, the residual activity [11] was 100% and the residual activity [12] was 91%. For the same compound, the residual activity [13] was 100%, the residual activity [14] was 96% and the residual activity [15] was 98%. The residual activity [16] was 69%, the residual activity [17] was 100% and the residual activity [18] was 100%. It also gave a residual activity [19] of 95%, a residual activity [20] of 100% and a residual activity [21] of 100%. For the same compound, the residual activity [22] was 100%, the residual activity [23] was 100% and the residual activity [24] was 82%. The residual activity [25] was 100%, the residual activity [26] was 100% and the residual activity [27] was 100%. For the same compound, the residual activity [28] was 100%, the residual activity [29] was 93% and the residual activity [30] was 100%. It also gave a residual activity [31] of 85%, a residual activity [32] of 86% and a residual activity [33] of 97%. The Ki ([34]; read-out: Ki) was 391 nM, the Ki ([34]; read-out: pKi (converted)) was 380 nM and the residual activity [35] was 83%. It also gave a residual activity [36] of 100%, a residual activity [37] of 98% and a residual activity [38] of 95%. It also gave a residual activity [39] of 100%, a residual activity [40] of 99% and a residual activity [41] of 75%. It also gave a residual activity [42] of 100%, a residual activity [43] of 100% and a residual activity [44] of 100%. The residual activity [45] was 100%.
`COc1cc(-c2cn([C@H]3CCc4c(F)cccc4N(CC(F)(F)F)C3=O)nn2)ccc1-n1cnc(C)c1` was tested, and the residual activity [1] was 100%, the residual activity [2] was 100% and the residual activity [3] was 100%. For the same compound, the residual activity [4] was 94%, the residual activity [5] was 84% and the residual activity [6] was 93%. It also gave a residual activity [7] of 100%, an inhibition [8] of 99.7% and a residual activity [9] of 100%. It also gave a residual activity [10] of 100%, a residual activity [11] of 100% and a residual activity [12] of 100%. It also gave a residual activity [13] of 100%, a residual activity [14] of 100% and a residual activity [15] of 100%. The residual activity [16] was 86%, the residual activity [17] was 100% and the residual activity [18] was 100%. For the same compound, the residual activity [19] was 100%, the residual activity [20] was 100% and the residual activity [21] was 100%. For the same compound, the residual activity [22] was 100%, the residual activity [23] was 100% and the residual activity [24] was 88%. It also gave a residual activity [25] of 100%, a residual activity [26] of 100% and a residual activity [27] of 89%. The residual activity [28] was 100%, the residual activity [29] was 100% and the residual activity [30] was 90%. It also gave a residual activity [31] of 100%, a residual activity [32] of 86% and a residual activity [33] of 100%. The Ki ([34]; read-out: Ki) was 24 nM, the residual activity [35] was 100% and the residual activity [36] was 100%. For the same compound, the residual activity [37] was 100%, the residual activity [38] was 97% and the residual activity [39] was 95%. It also gave a residual activity [40] of 89%, a residual activity [41] of 67% and a residual activity [42] of 100%. For the same compound, the residual activity [43] was 90%, the residual activity [44] was 100% and the residual activity [45] was 100%.
